The IC50 is the midpoint of a concentration-inhibition curve. A high value points to weaker potency.

The values that follow come from ChEMBL document CHEMBL1143213, “Anticancer activity of (1,2,3,5-tetrahydro-4,1-benzoxazepine-3-yl)-pyrimidines and -purines against the MCF-7 cell line: Preliminary cDNA microarray studies” (Bioorg Med Chem Lett, 2008).

SMILES strings stand for the structures. Active and inactive are the calls of the source. The rule behind the calls is not given here.

For the first assay, the system named is MCF7. The assay can be described thus: Antiproliferative activity against human MCF7 cells. It counts as functional, cell-based. The note with it: Homo sapiens, MCF7.
`Clc1ncnc2c1ncn2C1COc2ccccc2CO1` (stereo unspecified) yielded an IC50 of 1.25 µM.

With `COc1ccc2c(c1)COC(n1cc(F)c(=O)[nH]c1=O)CO2` (stereo unspecified), the IC50 was 1.25 µM.

Compound `FC(F)(F)c1ncnc2c1ncn2C1COc2ccccc2CO1` (stereo unspecified) gave an IC50 of 1.25 µM.

In turn, `Clc1nc(Cl)c2ncn(C3COc4ccccc4CO3)c2n1` (stereo unspecified) displayed an IC50 of 1.25 µM.

The compound `O=S1(=O)CC(n2cnc3c(Cl)ncnc32)OCc2ccccc21` (stereo unspecified) registered an IC50 of 1.25 µM.

Compound `Clc1ncnc2c1ncn2C1CSc2ccccc2CO1` (stereo unspecified) came in with an IC50 of 1.25 µM.

Take `O=[N+]([O-])c1ccccc1S(=O)(=O)N1CC(n2cnc3ncnc(Cl)c32)OCc2ccccc21` (stereo unspecified): the IC50 is 0.92 µM.

In turn, `COC(CN(C(=O)c1ccccc1)c1ccccc1CO)n1cc(F)c(=O)[nH]c1=O` (stereo unspecified) came in with an IC50 of 16.1 µM.

With `COC(CNc1ccccc1CO)n1cc(F)c(=O)[nH]c1=O` (stereo unspecified), the IC50 turned out to be 36 µM.

The compound `O=c1[nH]c(=O)n(C2CN(S(=O)(=O)c3ccccc3[N+](=O)[O-])c3ccccc3CO2)cc1F` (stereo unspecified) showed an IC50 of 19.7 µM.

`O=c1ccn(C2CN(S(=O)(=O)c3ccc([N+](=O)[O-])cc3)c3ccccc3CO2)c(=O)[nH]1` (stereo unspecified) came in with an IC50 of 39.8 µM.

Take `O=C(OCC1c2ccccc2-c2ccccc21)N1CC(n2cnc3c(Cl)ncnc32)OCc2ccccc21` (racemic): the midpoint of inhibition, the IC50, lay at 0.67 µM.

Take `O=C(OCC1c2ccccc2-c2ccccc21)N1CC(n2cnc3ncnc(Cl)c32)OCc2ccccc21` (stereo unspecified): the IC50 turned out to be 0.84 µM.

As for `Ic1ncnc2ncn(C3COc4ccccc4CO3)c12` (stereo unspecified), it took 1.25 µM to reach half-maximal inhibition (IC50).

Turning to `Nc1ccccc1S(=O)(=O)N1CC(n2c(=O)[nH]cc(F)c2=O)OCc2ccccc21` (stereo unspecified), the IC50 was determined as 43.7 µM.

As to `Clc1ncnc2ncn(C3CSc4ccccc4CO3)c12` (stereo unspecified), the IC50 was found to be 1.25 µM.

As for `Nc1ccccc1S(=O)(=O)N1CC(n2cnc3ncnc(Cl)c32)OCc2ccccc21` (stereo unspecified), the IC50 came to 9.14 µM.

Compound `O=c1cc[nH]c(=O)n1C1CN(S(=O)(=O)c2ccc([N+](=O)[O-])cc2)c2ccccc2CO1` (stereo unspecified) registered an IC50 of 44.3 µM.

In turn, `Nc1ccc(S(=O)(=O)N2CC(n3cc(F)c(=O)[nH]c3=O)OCc3ccccc32)cc1` (stereo unspecified) returned a half-inhibitory concentration (IC50) of 14.4 µM.

As for `O=c1ccn(C2CN(S(=O)(=O)c3ccccc3[N+](=O)[O-])c3ccccc3CO2)c(=O)[nH]1` (stereo unspecified), the IC50 stood at 45.2 µM.

For the compound `Nc1ccccc1S(=O)(=O)N1CC(n2cc(F)c(=O)[nH]c2=O)OCc2ccccc21` (stereo unspecified), the IC50 came to 54.8 µM.

For `O=[N+]([O-])c1ccc(S(=O)(=O)N2CC(n3cnc4ncnc(Cl)c43)OCc3ccccc32)cc1` (stereo unspecified), inhibition was half-maximal at 1.22 µM (IC50).

Turning to `COC(CN(c1ccccc1CO)S(=O)(=O)c1ccc([N+](=O)[O-])cc1)n1cc(F)c(=O)[nH]c1=O` (stereo unspecified), the IC50 stood at 55.2 µM.

As to `O=c1cc[nH]c(=O)n1C1CN(S(=O)(=O)c2ccccc2[N+](=O)[O-])c2ccccc2CO1` (stereo unspecified), the IC50 is 50.9 µM.

The compound `COC(CN(c1ccccc1CO)S(=O)(=O)c1ccc([N+](=O)[O-])cc1)n1c(=O)cc[nH]c1=O` (stereo unspecified) registered an IC50 of 55.2 µM.

Compound `O=[N+]([O-])c1ccccc1S(=O)(=O)N1CC(n2cnc3ncnc(O)c32)OCc2ccccc21` (stereo unspecified) registered an IC50 of 19.7 µM.

In turn, `O=c1[nH]cc(F)c(=O)n1C1CN(S(=O)(=O)c2ccc([N+](=O)[O-])cc2)c2ccccc2CO1` (stereo unspecified) registered a half-inhibitory concentration (IC50) of 19.8 µM.

`O=c1ccn(C2COc3ccccc3CO2)c(=O)[nH]1` (stereo unspecified) had an IC50 of 1.25 µM.

`O=[N+]([O-])c1ccccc1S(=O)(=O)N1CC(n2cnc3c(Cl)ncnc32)OCc2ccccc21` (stereo unspecified) registered an IC50 of 2.1 µM.

Regarding `O=c1[nH]c(=O)n(C2CNc3ccccc3CO2)cc1F` (stereo unspecified), the IC50 is > 100 µM.

In the case of `COC(CN(c1ccccc1CO)S(=O)(=O)c1ccc([N+](=O)[O-])cc1)n1cnc2c(Cl)ncnc21` (stereo unspecified), the IC50 is 18.7 µM.

In turn, `O=[N+]([O-])c1ccc(S(=O)(=O)N2CC(n3cnc4c(Cl)ncnc43)OCc3ccccc32)cc1` (stereo unspecified) yielded an IC50 of 2.73 µM.

`Ic1ncnc2c1ncn2C1COc2ccccc2CO1` (stereo unspecified): half-maximal inhibition (IC50) required 1.25 µM.

On to `COC(CN(c1ccccc1CO)S(=O)(=O)c1ccccc1N)n1cc(F)c(=O)[nH]c1=O` (stereo unspecified), for which the IC50 is > 100 µM.

Consider `Clc1nc(Cl)c2c(ncn2C2COc3ccccc3CO2)n1` (stereo unspecified), for which half-maximal inhibition (IC50) was put at 1.25 µM.

On to `COC(CN(c1ccccc1CO)S(=O)(=O)c1ccccc1[N+](=O)[O-])n1ccc(=O)[nH]c1=O` (stereo unspecified), for which the IC50 is 64.8 µM.

`Clc1ncnc2ncn(C3COc4ccccc4CO3)c12` (stereo unspecified) gave an IC50 of 1.25 µM.

In the case of `O=c1[nH]cc(F)c(=O)n1C1CN(S(=O)(=O)c2ccccc2[N+](=O)[O-])c2ccccc2CO1` (stereo unspecified), the IC50 was determined as 22.6 µM.

In the case of `O=[N+]([O-])c1ccc(S(=O)(=O)N2CC(n3cnc4ncnc(Sc5ccccc5)c43)OCc3ccccc32)cc1` (stereo unspecified), inhibition was half-maximal at 0.86 µM (IC50).

On to `c1ccc(Sc2ncnc3ncn(C4CNc5ccccc5CO4)c23)cc1` (stereo unspecified), for which the IC50 was 48.9 µM.

In turn, `COC(CN(c1ccccc1CO)S(=O)(=O)c1ccccc1[N+](=O)[O-])n1cc(F)c(=O)[nH]c1=O` (stereo unspecified) came in with an IC50 of 91 µM.

For the compound `O=[N+]([O-])c1ccc(S(=O)(=O)N2CC(n3cnc4ncnc(O)c43)OCc3ccccc32)cc1` (stereo unspecified), the IC50 was > 100 µM.

`O=c1[nH]cc(F)c(=O)n1C1CNc2ccccc2CO1` (stereo unspecified) returned a half-inhibitory concentration (IC50) of 72.4 µM.

Take `COC(CN(c1ccccc1CO)S(=O)(=O)c1ccc([N+](=O)[O-])cc1)n1ccc(=O)[nH]c1=O` (stereo unspecified): the IC50 worked out at 45.8 µM.

`O=[N+]([O-])c1ccccc1S(=O)(=O)N1CC(n2cnc3ncnc(Sc4ccccc4)c32)OCc2ccccc21` (stereo unspecified) had an IC50 of 2.59 µM.

`O=c1[nH]c(=O)n(C2CN(S(=O)(=O)c3ccc([N+](=O)[O-])cc3)c3ccccc3CO2)cc1F` (stereo unspecified) yielded an IC50 of 19.3 µM.

Compound `O=C(OCC1c2ccccc2-c2ccccc21)N1CC(n2cnc3ncnc(O)c32)OCc2ccccc21` (stereo unspecified) came in with an IC50 of 53.6 µM.

The assay is the same for the next values; noted with them: mcf7.
Compound `COC(CN(c1ccccc1CO)S(=O)(=O)c1ccccc1[N+](=O)[O-])n1cnc2c(Cl)ncnc21` (stereo in doubt; 51) registered an IC50 of 11.3 µM.

For the next assay, the system named is MCF7. Put plainly: Induction of GP132 gene expression in human MCF7 cells by microarray. It counts as functional, cell-based.
Conditions: not given
For `O=C(OCC1c2ccccc2-c2ccccc21)N1CC(n2cnc3c(Cl)ncnc32)OCc2ccccc21` (racemic), the result was Active.

The subject of another assay is MCF7. Put plainly: Down regulation of RAC1 gene expression in human MCF7 cells by microarray. It counts as functional, cell-based.
Conditions: not given
On to `O=[N+]([O-])c1ccc(S(=O)(=O)N2CC(n3cnc4ncnc(Sc5ccccc5)c43)OCc3ccccc32)cc1` (stereo unspecified), for which the result was Active.

The next assay relates to MCF7. The assay can be described thus: Induction of ERN1 gene expression in human MCF7 cells by microarray. The format is functional, cell-based.
Conditions: not given
With `O=C(OCC1c2ccccc2-c2ccccc21)N1CC(n2cnc3c(Cl)ncnc32)OCc2ccccc21` (racemic), the outcome was Active.
